Where two headings read alike, the source gives them in different places.
Legend:
HIV-1 IN = molecular target: T1, HIV-1 IN (Human immunodeficiency virus type 1 group M subtype B, UniProt P12497); test: In vitro IN inhibition assay (3’-processing and strand transfer); assay type: biochemical; settings: for IC50: Mn2+ cofactor (7.5 mM MnCl2); for IN inhibition (in words): highest concentration tested 100 μM
T1 construct: pre-incubated with purified recombinant IN (at a final concentration of 200 nM); made in house
Method: (§1) All compounds were dissolved in DMSO to a final stock concentration of 10 mM and stored at −20 °C. Initial screening for IN inhibitory effect was done at 100 μM and dilutions were made in DMSO. Compounds showing at least 50% inhibition at 100 μM were selected for IC50 determinations. γ-[^32P]-ATP was purchased from Perkin Elmer (Waltham, MA, USA). The expression system for wild-type IN was a generous gift of Dr. Robert Craigie, Laboratory of Molecular Biology, NIDDK, NIH (Bethesda, MD, USA). His-tagged APE1 was purified from an expression system kindly provided by Dr. Tom Curran, Department of Developmental Neurobiology, St. Jude Children’s Research Hospital (Memphis, TN, USA).
(§2) 21-mer oligonucleotides used in IN inhibition assay [21top (5’-[…]-3’) and 21bot (5’-ACTGCTAGAGATTTTCCA CAC-3’)] were purchased from Integrated DNA Technologies (Coralville, IA, USA) and purified by UV shadowing on polyacrylamide gel. The oligonucleotides used in APE1 inhibition assay [top strand: 5′-ATTTCACCGGTACG(F)TCTAGAATC CG-3′ containing the tetrahydrofuran synthetic abasic residue (F), and bottom strand: 3′-TAAAGTGG CCATGC(C)AGATCTTAGGC-5′] were purchased from The Midland Certified Reagent Company (Midland, TX, USA). To analyze the extent of 3’-processing and strand transfer with 5’-end labeled substrates, 21top was 5’-end labeled using T4 polynucleotide kinase (Epicentre, Madison, WI, USA) and [γ-^32P]-ATP (Perkin Elmer, Waltham, MA, USA). The kinase was heat-inactivated at 95 °C and 21bot was added in […]. The reaction mixture was allowed to cool slowly to room temperature, and purified through a spin-25 minicolumn (USA Scientific, Ocala, FL, USA) to separate annealed double-stranded oligonucleotide from unincorporated material. The oligonucleotides used in the APE1 inhibition assay were labeled using a similar protocol.
To determine the extent of 3’-processing and strand transfer, the test compounds, diluted in DMSO, were pre-incubated with purified recombinant IN (at a final concentration of 200 nM) in the reaction buffer [50 mM NaCl, 1 mM HEPES (pH 7.5), 50 μM EDTA, 50 μM dithiothreitol, 10% glycerol (w/v), 7.5 mM MnCl2, 0.1 mg mL–1 bovine serum albumin, 10 mM 2-mercaptoethanol, 10% dimethyl sulfoxide, and 25 mM MOPS (pH 7.2)] at 30 °C for 30 min. For Mg^2+ assay, 7.5 mM MgCl2 was substituted for MnCl2 and an optimal concentration of PEG was included in the reaction buffer. Following the pre-incubation, 20 nM of the 5’-end ^32P-labeled linear oligonucleotide substrate was added to the reaction mixture and incubated for an additional 1 h. Reactions were quenched by addition of 50X loading dye (98% deionized formamide, 10 mM EDTA, 0.025% xylene cyanol, and 0.025 % bromophenol blue). An aliquot was subjected to electrophoresis on a denaturing polyacrylamide gel (0.09 M tris–borate, pH 8.3, 2 mM EDTA, 20% acrylamide, 8M urea). Gels were dried under vacuum, exposed in a PhosphorImager cassette and visualized with a Typhoon 8610 Variable Mode Imager (Amersham Biosciences). Quantification was done with Image Quant 5.2 software. Percent inhibition (%I) was calculated using the following equation: %I = 100 × [1 − (D − C) / (N − C)] where C, N, and D are the fractions of 21-mer substrate converted into 19-mer (product of 3’-processing) or strand-transfer products for DNA alone, DNA plus IN, and DNA, IN plus test compound, respectively. IC50 values were determined by plotting the logarithm of test compound concentrations as a function of %I to obtain the concentration that produced 50% inhibition.

[1] = molecular target: T2, human apurinic/apyrimidinic endonuclease 1 (APE1) (Homo sapiens, UniProt P27695); test: APE1 inhibition assay; assay type: biochemical; settings: read-out: Inhibition of APE1 catalytic activity IC50
T2 construct: His; made in house
T2 sequence (P27695 whole entry): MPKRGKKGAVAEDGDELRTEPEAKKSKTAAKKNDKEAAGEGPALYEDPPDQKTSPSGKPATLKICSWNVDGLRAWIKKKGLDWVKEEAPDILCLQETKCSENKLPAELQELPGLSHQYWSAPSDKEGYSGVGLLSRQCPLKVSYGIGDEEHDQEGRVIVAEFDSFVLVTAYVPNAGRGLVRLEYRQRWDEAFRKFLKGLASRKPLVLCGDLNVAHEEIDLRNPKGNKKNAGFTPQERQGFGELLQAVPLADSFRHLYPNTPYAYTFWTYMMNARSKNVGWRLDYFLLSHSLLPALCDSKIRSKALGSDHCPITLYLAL
Method: as §1, §2
APE1 inhibition assay was performed as previously described. To determine the extent of endonucleolytic cleavage of the abasic residue, the test compounds, diluted in DMSO, were preincubated with recombinant APE1 at a final concentration of 0.05 nM in the reaction buffer [50 mM NaCl, 1 mM HEPES, pH 7.5, 50 μM EDTA, 50 μM dithiothreitol, 10% glycerol (w/v), 7.5 mM MnCl2, 0.1 mg mL‑1 bovine serum albumin, 10 mM 2-mercaptoethanol, 10% DMSO, and 25 mM MOPS, pH 7.2] at 30 °C for 10 min. Following preincubation, 200 nM of the 5′-end ^32P-labeled linear oligonucleotide substrate was added, and incubated for an additional 10 minutes. Reactions were quenched by the addition of an equal volume (16 μL) of loading dye (98% deionized formamide, 10 mM EDTA, 0.025% xylene cyanol, and 0.025% bromophenol blue). An aliquot (5 μL) was electrophoresed on a denaturing 20% polyacrylamide gel (0.09 M tris-borate pH 8.3, 2 mM EDTA, 20% acrylamide, 8 M urea). The gels were dried, exposed in a PhosphorImager cassette and analyzed using a Typhoon 8610 Variable Mode Imager (Amersham Biosciences). Quantification of enzyme inhibition was done using Image Quant 5.2 software. The percent inhibition (% I) was calculated using the following equation: %I = 100 × [1 − (D − C) / (N − C)] where C, N, and D are the fractions of 26-mer substrate converted to 13-mer incision products (or integration products) for DNA alone, DNA plus APE1, and DNA, APE1 plus test compound, respectively. IC50 values were determined by plotting the logarithm of compound concentration as a function of %I to obtain the concentration that produced 50% inhibition. An optimum concentration of APE1 enzyme, at which there is complete conversion of the synthetic abasic-site containing oligonucleotide substrate to its cleaved product without subsequent exonuclease activity, was used in the assay.

[2] = read-out: Inhibition of IN catalytic activity IC50, 3’-Processing
[3] = read-out: Inhibition of IN catalytic activity IC50, Strand Transfer

Compound | melting point | IC50 (HIV-1 IN; [2]) | IC50 (HIV-1 IN; [3]) | IC50 [1] | IN inhibition (in words) (HIV-1 IN)
COc1cc(NC(=O)C(=S)NN2C(=O)C(=Cc3cc(Cl)cc(Cl)c3O)SC2=S)cc(OC)c1OC [Compound 36, 2-{[5-(3,5-Dichloro-2-hydroxybenzylidene)-4-oxo-2-thioxo-1,3-thiazolidin-3-yl]amino}-2-thioxo-N-(3,4,5-trimethoxyphenyl)acetamide] | 215 to 216 °C | 46 ± 5 µM | > 100 µM | > 100 µM | –
CCOc1cc(-n2cnnn2)c(OCC)cc1NC(=O)C(=S)NN1C(=O)C(=Cc2ccc([N+](=O)[O-])o2)SC1=S [Compound 20, N-[2,5-diethoxy-4-(1H-tetrazol-1-yl)phenyl]-2-{5-[(5-nitro-2-furyl)methylene]-4-oxo-2-thioxo-1,3-thiazolidin-3-yl}amino-2-thioxoacetamide] | 136 to 138 °C | > 100 µM | 85 ± 21 µM | > 100 µM | –
O=C(Nc1ccc(O)cc1)C(=S)NN1C(=O)C(=Cc2ccc(O)c(C(=O)O)c2)SC1=S [Compound 49, 2-Hydroxy-5-{[3-({2-[(4-hydroxyphenyl)amino]-2-oxoethanethioyl}amino)-4-oxo-2-thioxo-1,3-thiazolidin-5-ylidene]methyl}benzoic acid] | 223 to 224 °C | 80 µM | 45 µM | > 100 µM | –
COc1cc(NC(=O)C(=S)NN2C(=O)C(=Cc3cccc([N+](=O)[O-])c3O)SC2=S)cc(OC)c1OC [Compound 29, 2-{[5-(2-Hydroxy-3-nitrobenzylidene)-4-oxo-2-thioxo-1,3-thiazolidin-3-yl]amino}-2-thioxo-N-(3,4,5-trimethoxyphenyl)acetamide] | 193 to 194 °C | 74 ± 18 µM | 72 ± 23 µM | > 100 µM | –
COc1cc(NC(=O)C(=S)NN2C(=O)C(=Cc3cc(Br)ccc3O)SC2=S)cc(OC)c1OC [Compound 28, 2-{[5-(5-Bromo-2-hydroxybenzylidene)-4-oxo-2-thioxo-1,3-thiazolidin-3-yl]amino}-2-thioxo-N-(3,4,5-trimethoxyphenyl)acetamide] | 208 to 209 °C | 44 ± 13 µM | 30 ± 19 µM | > 100 µM | –
COc1cc(/C=C2/SC(=S)N(NC(=S)C(=O)Nc3cc(C(F)(F)F)cc(C(F)(F)F)c3)C2=O)cc(OC)c1OC [Compound 26, N-[3,5-bis(trifluoromethyl)phenyl]-2-{[4-oxo-2-thioxo-5-(3,4,5-trimethoxybenzylidene)-1,3-thiazol-idin-3-yl]amino}-2-thioxoacetamide] | 187 to 188 °C | > 100 µM | > 100 µM | – | –
C=CCc1cccc(C=C2SC(=S)N(NC(=S)C(=O)Nc3ccc(O)cc3)C2=O)c1O [Compound 46, 2-{[5-(3-Allyl-2-hydroxybenzylidene)-4-oxo-2-thioxo-1,3-thiazolidin-3-yl]amino}-N-(4-hydroxy-phenyl)-2-thioxoacetamide] | 153 to 154 °C | > 100 µM | 100 µM | > 100 µM | –
COc1cc(NC(=O)C(=S)NN2C(=O)/C(=C\c3ccc(O)c(C(=O)O)c3)SC2=S)cc(OC)c1OC [Compound 35] | 239 to 240 °C | 45 ± 24 µM | 61 ± 11 µM | > 100 µM | only a moderate effect
COc1cc(C=C2SC(=S)N(NC(=S)C(=O)Nc3cccc(C(F)(F)F)c3)C2=O)cc(OC)c1OC [Compound 25, 2-{[4-Oxo-2-thioxo-5-(3,4,5-trimethoxybenzylidene)-1,3-thiazolidin-3-yl]amino}-2-thioxo-N-[3-(tri-fluoromethyl)phenyl]acetamide] | 160 to 161 °C | > 100 µM | > 100 µM | > 100 µM | –
COc1cc(C=C2SC(=S)N(NC(=S)C(=O)Nc3cc(OC)c(OC)c(OC)c3)C2=O)cc(OC)c1OC [Compound 22, 2-{[4-Oxo-2-thioxo-5-(3,4,5-trimethoxybenzylidene)-1,3-thiazolidin-3-yl]amino}-2-thioxo-N-(3,4,5-tri-methoxyphenyl)acetamide] | 196 to 197 °C | > 100 µM | 90 µM | > 100 µM | –
O=C(Nc1ccc(Cl)cc1)C(=S)NN1C(=O)C(=Cc2ccc(Cl)cc2)SC1=S [Compound 7, 2-{[5-(4-Chlorobenzylidene)-4-oxo-2-thioxo-1,3-thiazolidin-3-yl]amino}-N-(4-chlorophenyl)-2-thioxo-acetamide] | 211 to 212 °C | > 100 µM | > 100 µM | – | lacked any IN inhibitory activity
2-{[5-(2-Hydroxy-3,5-diisopropylbenzylidene)-4-oxo-2-thioxo-1,3-thiazolidin-3-yl]amino}-N-(4-hydroxyphenyl)-2-thioxoacetamide [Compound 54] | – | > 100 µM | > 100 µM | > 100 µM | loss of activity
2-{[5-(2-Hydroxy-3,5-diisopropylbenzylidene)-4-oxo-2-thioxo-1,3-thiazolidin-3-yl]amino}-N-(3,4,5-trimethoxyphenyl)-2-thioxoacetamide [Compound 40] | – | > 100 µM | 95 µM | > 100 µM | –
O=C(Nc1cccc(C(F)(F)F)c1)C(=S)NN1C(=O)C(=Cc2ccc([N+](=O)[O-])o2)SC1=S [Compound 15, 2-{5-[(5-Nitro-2-furyl)methylene]-4-oxo-2-thioxo-1,3-thiazolidin-3-yl}amino-2-thioxo-N-[3-(trifluoro-methyl)phenyl]acetamide] | 163 to 164 °C | 61 ± 35 µM | 56 ± 11 µM | – | –
2-{[5-(5-Bromo-2-hydroxy-3-methoxybenzylidene)-4-oxo-2-thioxo-1,3-thiazolidin-3-yl]amino}-N-(3,4,5-trimethoxyphenyl)acetamide [Compound 38] | – | 51 ± 25 µM | 32 ± 11 µM | 65 ± 33 µM | –

Source: PMC6264390, “Design, Synthesis and Structure-activity Studies of Rhodanine Derivatives as HIV-1 Integrase Inhibitors” (Molecules, 2010)
